Test results published in ChEMBL document CHEMBL1201862, “PubChem BioAssay data set” (2004).
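Results reflect a 48-hour exposure of cells in 96-well plates to compound at five concentrations. At the GI50, growth is halved.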 Active and inactive are the calls of the source. Rule as the data show it: active = GI50 up to about 1.1 µM and inactive = higher.

Legend:
Assay in all cases: NCI tumour cell line growth inhibition, 48 h
[1] = test system: HCT-15
[2] = test system: SK-MEL-28
[3] = test system: LOX IMVI
[4] = test system: SK-MEL-5
[5] = test system: CCRF-CEM
[6] = test system: SN12C
[7] = test system: OVCAR-3
[8] = test system: OVCAR-5
[9] = test system: Malme-3M
[10] = test system: SK-MEL-2
[11] = test system: A549
[12] = test system: HCT-116
[13] = test system: 786-0
[14] = test system: OVCAR-8
[15] = test system: SR
[16] = test system: SK-OV-3
[17] = test system: BT-549
[18] = test system: SF-539
[19] = test system: PC-3
[20] = test system: Hs-578T
[21] = test system: MCF7
[22] = test system: NCI/ADR-RES
[23] = test system: HOP-62
[24] = test system: SF-268
[25] = test system: HCC 2998
[26] = test system: NCI-H226
[27] = test system: UO-31
[28] = test system: NCI-H460
[29] = test system: SF-295
[30] = test system: OVCAR-4
[31] = test system: UACC-257
[32] = test system: NCI-H522
[33] = test system: DU-145
[34] = test system: COLO 205
[35] = test system: IGROV-1
[36] = test system: HOP-92
[37] = test system: HL-60
[38] = test system: MDA-MB-435
[39] = test system: SNB-75
[40] = test system: UACC-62
[41] = test system: CAKI-1
[42] = test system: SNB-19
[43] = test system: NCI-H23
[44] = test system: HT-29
[45] = test system: U-251
[46] = test system: SW-620
[47] = test system: RXF 393
[48] = test system: TK-10
[49] = test system: ACHN
[50] = test system: T47D
[51] = test system: MOLT-4
[52] = test system: KM12
[53] = test system: M14
[54] = test system: MDA-MB-231
[55] = test system: EKVX
[56] = test system: K562
[57] = test system: RPMI-8226
[58] = test system: A498

Measured: GI50

Cc1ccc(N2CCc3c(C)c(C#N)c4nc5ccccc5n4c32)cc1
> 100 µM: [1]
inactive: [2] > 100 µM | [3] > 100 µM | [4] > 100 µM | [5] > 100 µM | [6] > 100 µM | [7] > 100 µM | [8] > 100 µM | [9] > 100 µM | [10] 23.8 µM | [11] > 100 µM | [12] > 100 µM | [13] 12.1 µM | [14] 49.3 µM | [15] 2.94 µM | [16] 59.3 µM | [17] > 100 µM | [18] 39.3 µM | [19] > 100 µM | [20] 16 µM | [21] > 100 µM | [22] > 100 µM | [23] 36.6 µM | [24] 31.8 µM | [25] > 100 µM | [26] > 100 µM | [27] > 100 µM | [28] 99.1 µM | [29] 41.6 µM | [30] > 100 µM | [31] > 100 µM | [32] 9.04 µM | [33] > 100 µM | [34] 90.6 µM | [35] 68.1 µM | [36] 10.4 µM | [37] > 100 µM | [38] 6.27 µM | [39] 22.7 µM | [40] 27 µM | [41] 70.6 µM | [42] 37.4 µM | [43] > 100 µM | [44] > 100 µM | [45] 38.8 µM | [46] 85.9 µM | [47] 32.1 µM | [48] > 100 µM | [49] > 100 µM

C=C(C)[C@@]1(O)O[C@H]2C[C@@]3(C)OC(=CC3=O)/C(C)=C\[C@@H]3OC(=O)[C@@]1(C)[C@H]32
9.25 µM: [1]
inactive: [2] 12.6 µM | [3] 6.31 µM | [4] 13.3 µM | [5] 3.94 µM | [6] 15 µM | [7] 15.5 µM | [50] 21.3 µM | [8] 14 µM | [51] 7.8 µM | [9] 18.5 µM | [10] 14 µM | [11] 29.2 µM | [12] 7.64 µM | [13] 11.7 µM | [14] 27 µM | [15] 6.97 µM | [16] 47.4 µM | [52] 15.1 µM | [17] 8.89 µM | [18] 23.9 µM | [19] 16.3 µM | [20] 45.8 µM | [21] 11.6 µM | [22] 13.1 µM | [23] 21.6 µM | [24] 23 µM | [25] 15.3 µM | [26] 39.3 µM | [27] 30.1 µM | [28] 22.8 µM | [53] 14.9 µM | [29] 23.7 µM | [30] 20.7 µM | [31] 23.2 µM | [32] 3.61 µM | [33] 37.7 µM | [34] 16 µM | [35] 15 µM | [36] 20.4 µM | [37] 14.2 µM | [54] 17 µM | [55] 29.2 µM | [38] 14.7 µM | [39] 23.8 µM | [40] 14.1 µM | [41] 19.6 µM | [42] > 58.7 µM | [56] 4.67 µM | [43] 15.3 µM | [57] 7.94 µM | [44] 19.5 µM | [45] 16.1 µM | [46] 4.9 µM | [47] 11.1 µM | [48] 22.9 µM | [49] 18.2 µM

CC(C)(O)CCC(O)C(C)(O)C1CCC2(O)C3=CC(=O)C4(O)CC(O)C(O)CC4(C)C3CCC12C.CC(C)(O)CCC(O)C(C)(O)C1CCC2(O)C3=CC(=O)C4CC(O)C(O)CC4(C)C3CCC12C (configuration not stated)
> 100 µM: [1]
inactive: [2] > 100 µM | [3] > 100 µM | [4] > 100 µM | [5] > 100 µM | [6] > 100 µM | [7] > 100 µM | [50] > 100 µM | [8] > 100 µM | [51] > 100 µM | [9] > 100 µM | [10] > 100 µM | [11] > 100 µM | [12] > 100 µM | [13] > 100 µM | [14] > 100 µM | [15] > 100 µM | [16] > 100 µM | [52] > 100 µM | [17] > 100 µM | [58] > 100 µM | [18] > 100 µM | [19] > 100 µM | [20] > 100 µM | [21] 86.7 µM | [22] > 100 µM | [23] > 100 µM | [24] > 100 µM | [26] > 100 µM | [27] > 100 µM | [28] > 100 µM | [53] > 100 µM | [29] > 100 µM | [30] > 100 µM | [31] > 100 µM | [32] > 100 µM | [33] > 100 µM | [34] > 100 µM | [35] > 100 µM | [36] > 100 µM | [37] > 100 µM | [54] > 100 µM | [55] > 100 µM | [38] > 100 µM | [39] > 100 µM | [40] > 100 µM | [41] > 100 µM | [42] > 100 µM | [56] > 100 µM | [43] > 100 µM | [44] > 100 µM | [45] > 100 µM | [46] > 100 µM | [47] > 100 µM | [48] > 100 µM | [49] > 100 µM

O=C(Nc1nccs1)NS(=O)(=O)n1cnc2ccccc21
inactive: [2] > 100 µM | [4] > 100 µM | [5] > 100 µM | [6] > 100 µM | [7] > 100 µM | [50] > 100 µM | [8] > 100 µM | [51] > 100 µM | [9] > 100 µM | [10] > 100 µM | [11] > 100 µM | [12] > 100 µM | [13] > 100 µM | [14] > 100 µM | [16] > 100 µM | [52] > 100 µM | [17] > 100 µM | [58] > 100 µM | [18] > 100 µM | [19] > 100 µM | [20] > 100 µM | [21] > 100 µM | [22] > 100 µM | [23] > 100 µM | [24] > 100 µM | [25] > 100 µM | [26] > 100 µM | [27] > 100 µM | [28] > 100 µM | [53] > 100 µM | [29] > 100 µM | [30] > 100 µM | [31] > 100 µM | [32] > 100 µM | [33] > 100 µM | [34] > 100 µM | [35] > 100 µM | [36] > 100 µM | [37] > 100 µM | [54] > 100 µM | [55] > 100 µM | [38] > 100 µM | [39] > 100 µM | [40] > 100 µM | [41] > 100 µM | [42] > 100 µM | [43] > 100 µM | [57] > 100 µM | [44] > 100 µM | [45] > 100 µM | [46] > 100 µM | [47] > 100 µM | [48] > 100 µM | [49] > 100 µM
> 100 µM: [1]

COC(=O)C(/C(=N/N)C(=O)Nc1ccc(C)c(C)c1)c1nc2ccc(Cl)cc2nc1O (configuration not stated)
inactive: [2] > 100 µM | [3] > 100 µM | [4] > 100 µM | [5] > 100 µM | [6] > 100 µM | [7] > 100 µM | [50] > 100 µM | [8] > 100 µM | [51] > 100 µM | [9] > 100 µM | [10] > 100 µM | [11] > 100 µM | [12] > 100 µM | [13] > 100 µM | [14] > 100 µM | [15] > 100 µM | [16] > 100 µM | [52] > 100 µM | [17] > 100 µM | [58] > 100 µM | [18] > 100 µM | [19] > 100 µM | [20] > 100 µM | [21] > 100 µM | [22] > 100 µM | [23] > 100 µM | [24] > 100 µM | [25] > 100 µM | [26] > 100 µM | [27] 28.4 µM | [28] > 100 µM | [53] > 100 µM | [29] > 100 µM | [30] > 100 µM | [31] > 100 µM | [32] > 100 µM | [35] 49.3 µM | [36] > 100 µM | [37] > 100 µM | [54] > 100 µM | [55] 74.5 µM | [38] > 100 µM | [39] > 100 µM | [40] > 100 µM | [41] > 100 µM | [56] > 100 µM | [43] > 100 µM | [57] > 100 µM | [44] > 100 µM | [45] > 100 µM | [46] > 100 µM | [47] > 100 µM | [48] > 100 µM | [49] 40.3 µM
> 100 µM: [1]
